Series [1] in a line: Fluorescence emission of the probe before and after oxidation. In kind it is physicochemical.
The test system of series [2] is reactive oxygen species (superoxide, hydroxyl radical). The series is described as follows: Detection of reactive oxygen species in vitro, fluorescence plate reader assay (G-GO, X-XO, SIN-1 systems). It is filed as biochemical. As for the experimental part:
FIG. 3 is a bar graph showing evaluation of SLN128 for detection of reactive oxygen species in vitro in accordance with the present disclosure. Data are shown as mean fluorescence intensity (arbitrary units)±SD, where ****p<0.0001 values are determined by an unpaired student t-test. (Abbreviations: G: Glucose; GOX: Glucose oxidase; HRP: Horseradish peroxidase; X: Xanthine; XO: Xanthine oxidase; SOD: Superoxide Dismutase; CAT: Catalase. All values are normalized to fluorescence output of untreated SLN128 (control). Please note response to HRP induced hydroxyl radical in GGO system, its mitigation with CAT; and response to HX-XO (superoxide) and its intervention with SOD.
Of note, superoxide can originate from numerous sources in vivo, including the mitochondrial electron transport chain and NADPH oxidase(s), which are activated under conditions of inflammation, ischemia, and tissue injury. […] Therefore, the ability to detect elevated ROS in patients could provide a better understanding of relationships between ROS, tissue injury, and disease staging including information on signaling cascade that promote inflammation. To measure ROS production, various methods that use colorimetry, chemiluminescence, and fluorescence have been deployed, While xanthine-xanthine oxidase (X-XO) and SIN-1 have been used for production of superoxide and nitric oxide (wherein the combination produces peroxynitrite), respectively, the glucose-glucose oxidase (G-GO) system is useful for production of hydrogen peroxide. Employing concentrations of SLN128 and G-GO, and X-XO in vitro conditions described previously, the ability of SLN-128 or 12 to detect different reactive oxygen species at 37° C. in PBS was evaluated under physiological conditions (pH 7.2) and normalized by background fluorescence output of untreated SLN128 as a control using a fluorescence plate reader assay (see e.g., FIG. 3). […] Under both conditions, oxidation of the probe was neutralized by the addition of superoxide dismutase (SOD) (see e.g., FIG. 3). […] (see e.g., FIG. 3).

The subject of series [3] is microglial cells and neurons in brain sections. Description: Ex vivo fluorescence of brain sections after tail-vein injection of unlabeled SLN128 into 3-NP treated mice. In kind it is in vivo. To be noted: anti-IBA1 and anti-NeuN. As for the experimental part: FIG. 11 includes images showing post PET/CT imaging in accordance with the present disclosure. SLN128 (100 μL; 1 mg/mL) was injected through tail-vein into 3NP-or saline treated mice, and brain tissue was processed as described in FIG. 10A-FIG. 10D.
Systemic administration of LPS induces oxidative stress and resulting a release of inflammatory cytokines, sustained microglial activation, and neuronal cell loss in brain areas, such as the hippocampus, cerebral cortex, substantia nigra, ventral tegmental area, and thalamus, alters the levels of neurotransmitters in adult animals, and cerebellum. Thus LPS-induced inflammation provides a useful rodent model for preclinical imaging of ^18F-SLN-128. […] Finally, the brain uptake (see e.g., FIG. 9C) derived from PET imaging also correlated with 60 min post imaging quantified uptake (see e.g., FIG. 9D) indicating potential of the radiotracer for imaging endotoxin mediated brain inflammation in vivo. Mitochondrial dysfunction is a major event in the pathogenesis of Huntington disease (HD). It has also been reported that systemic 3-NP administration leads to oxidized proteins in the striatum, as well as a massive loss of striatal neurons. To evaluate potential of ^18F-SLN-128 PET imaging for 3NP-induced ROS-mediated neurodegeneration in mice, PET/CT imaging was performed.

In series [4] the test system is human glioblastoma U87 cells. Description: Live-cell fluorescence imaging of cellular accumulation in U87 cells. It is filed as cell-based. To be noted: for intracellular localization: U87 cells, 100× objective, with mitotracker / mitoSOX. As for the experimental part:
FIG. 4 includes images showing cellular accumulation of SLN128 (20 nM) in human glioblastoma (U87) cells using live-cell fluorescence imaging: intracellular localization in accordance with the present disclosure. SLN128 was incubated at 37° C. for 1 h with either mitotracker red/or mitoSOX Deep Red in human U87MG cells. Images were acquired using a 100×objective.
FIG. 5 includes images showing cellular accumulation of SLN128 (20 nM) in human glioblastoma (U87) cells using live-cell fluorescence imaging in accordance with the present disclosure. SLN128 was incubated for 1 h either with media (control), LPS treated (1 μg/mL; 3 h) or 3-nitropropionic acid (3-NP; 10 μg/mL) human U87MG cells: Images were acquired using a 20×objective.
FIG. 6 is a bar graph showing cellular accumulation of SLN128 in either serum and glucose deprived- or LPS or 3 NP-treated U87 cells in either presence or absence of resveratrol (10 μM) in accordance with the present disclosure. Images were acquired using a 20×objective (all panels represent same magnification) in live human U87 cells. While U87 control cells were plated under normal conditions, both serum-and glucose-deprived (Starvation), and LPS/3-NP treated cells were allowed to recover in presence of resveratrol) for 24 h and treated with SLN-128(20 nM) for 60 min, cell uptake was evaluated via live-cell imaging, and quantified as described earlier. Corrected Total Cell Fluorescence (CTCF)=Integrated Density-(Area of selected cell X Mean fluorescence of background readings); (mean±SD), where **p<0.01 and […] are determined by an unpaired student t-test.
Lipopolysaccharide (LPS), is an endotoxin, released from Gram-negative bacteria. Next, the ability of SLN128 to detect either LPS or 3-Nitropropionic acid (3-NP) induced ROS in human cells was evaluated through live-cell fluorescence imaging. LPS is detected by toll-like receptor 4 (TLR4), a broadly expressed pattern recognition receptor found both on different cell types, including glial cells, and neurons. TLR4 engagement triggers the generation of mitochondrial superoxide from electron transport complex I, which in turn promotes bacterial killing. LPS treatment also triggers increased cytokine and chemokine expression in brain thus driving inflammation. […] To this end, intracellular localization of SLN-128 in either the presence or absence of mitotracker deep red (control) was simulataneously assessed in either the LPS or 3-NP stimulated human glioblastoma U87 cells (see e.g., FIG. 4). […] The probe uptake was quantified as corrected total cell fluorescence (CTCF) using image J as described earlier. […] Uptake in brain and other critical organs was analyzed in terms of percent injected dose per gram of the tissue (% ID/g).

For series [5] the following is noted: normal mice, cited from earlier work.
The mark [6] stands for this setting: PBS with 1.0% ethanol, excited with a 402 nm laser.

The structures appear in SMILES notation. Entries after “also recorded” stand apart in the source; their conditions may differ. Like-named read-outs stand apart in the source and are kept apart here.

As for `COc1ccc2c(c1)N(C)C(c1ccc(O)c(OCCF)c1)c1cccn1-2` (stereo not shown) [SLN128], the broad emission peak in series [1] (setting [6]) is on record as 520-540 nm. Moreover, the emission maximum in series [1] (setting [6]) stood at 530 nm. Moreover, the “enhancement of mean fluorescence intensity following oxidation” value in series [1] (following its oxidation) is given as 4 fold. Besides, in series [2], the “reactive oxygen species detected” value is “both superoxide and hydroxyl radical”. Further, the “fluorescence response in G-GO system” value in series [2] (37° C., PBS pH 7.2) is reported as “only a slight increase in fluorescence”. The “response to HRP in G-GO system (hydroxyl radical)” value in series [2] (37° C., PBS pH 7.2, normalized to untreated SLN128) is 10 fold. Also, in series [2] (xanthine oxidase/xanthine or SIN-1 with CPTIO, neutralized by SOD), the detection of superoxide result is given as “ability to detect superoxide”. Besides, the “localization in brain sections ex vivo” value in series [3] was “localizes in microglial cells and neurons; also recorded: maps markers for microglial and neuronal cells”. For the same compound, the “fluorescence in LPS- or 3-NP stimulated cells compared to untreated U87 cells” value in series [4] (LPS or 3-NP stimulation) is reported as “higher fluorescence”. The intracellular localization entry in series [4] is “penetrates into mitochondria of U87 cells”; in series [4] (listed as SLN 128) it was “maps both mitotracker and mitoSOX”. In series [4] (presence or absence of resveratrol), the “monitoring of therapeutic effect (CTCF)” value is “ability to monitor resveratrol-induced mitigation of ROS”.

Turning to `CNc1ccc(/C=C/c2ccc(OCCOCCOCC[18F])nc2)cc1` [[^18F]-AVID-45, [^18F]-Florbetapir], the figures for the brain uptake in series [5] (2 min) and in series [5] (2 h) were 7.33±1.54 % ID/g and 1.80±0.07 % ID/g, respectively. Further, the “brain uptake ratio 2 min/2 h” value in series [5] is 4.07.

On to `CNc1ccc(/C=C/c2ccc(OCCOCCOCC[18F])cc2)cc1` [[^18F]-Florbetaben], for which the brain uptake in series [5] (2 min) is 4.77 % ID/g; in series [5] (4 h) it was 0.95 % ID/g. For the same compound, the “brain uptake ratio 2 min/4 h” value in series [5] is recorded as 5.0.

Turning to `COCOc1ccc(-c2c3cccn3c3ccc(OC)cc3[n+]2C)cc1OCCF.[I-]` [compound 15], the “emission shift following oxidation” value in series [1] (oxidized form) is 580 nm.

The values are drawn from patent US20240226342A1, “REACTIVE OXYGEN SPECIES IMAGING AGENTS” (Washington University, priority 2022, published 2024).
